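In this assay, cells in 96-well plates receive the compound at five concentrations for 48 hours. Endpoints are linearly interpolated between the surrounding concentrations. The concentration for 50% growth inhibition is given as GI50. TGI: concentration producing complete growth inhibition.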
How the values were obtained:
Experiment in all cases: NCI anticancer screen, dose series, 48 h
[1] = test system: OVCAR-8 ovarian
[2] = test system: 786-0 renal
[3] = test system: SNB-19 CNS
[4] = test system: SNB-75 CNS
[5] = test system: A549 NSCLC
[6] = test system: UACC-257 melanoma
[7] = test system: HOP-62 NSCLC
[8] = test system: CAKI-1 renal
[9] = test system: UACC-62 melanoma
[10] = test system: SF-295 CNS

Compound	GI50 [1] [µM]	TGI [1] [µM]	GI50 [2] [µM]	TGI [2] [µM]	GI50 [3] [µM]	TGI [3] [µM]	GI50 [4] [µM]	TGI [4] [µM]	GI50 [5] [µM]	TGI [5] [µM]	GI50 [6] [µM]	TGI [6] [µM]	GI50 [7] [µM]	TGI [7] [µM]	GI50 [8] [µM]	TGI [8] [µM]	GI50 [9] [µM]	TGI [9] [µM]	TGI [10] [µM]	GI50 [10] [µM]
CC(C)=CCC/C(C)=C/CC/C(=C/COP(=O)(OCc1ccc([N+](=O)[O-])o1)N(C)CCCCCl)C(C)(C)C (stereo not given)	10.7	36.1	2.53	8.18	15.8	33.6	15.6	40	10.9	27.5	10.8	27.6	1.83	3.86	5.78	22	9.21	23.5		
[N-]=[N+]=CC(=O)OCC(N)C(=O)O (stereo not given)	0.923	> 100	0.856	> 100	2.28	> 100	2.68	> 100	0.711	2.86	3.61	> 100	2.26	> 100	0.429	> 100	2.06	> 100		
Cc1ccc(C2=NO[C@@H]3C(=O)N(c4ccc(Cc5ccc(N6C(=O)[C@H]7C(c8ccc(C)cc8)=NO[C@H]7C6=O)cc5)cc4)C(=O)[C@H]23)cc1		> 100		> 100				> 100		> 100		> 100		> 100		> 100		> 100	> 100	
CC1C2=CC=C(O2)C(C)(C)C2=CC=C(O2)C(C)(C)C2=CC=C(O2)C(C)(C)C2=CC=C1O2		> 100		> 100		> 100				> 100		> 100		> 100		> 100			> 100	
Cc1ccc2[nH]c(=O)c(C(C#N)c3ccccc3)nc2c1 (stereo not given)				> 100		89.2		> 100		> 100		> 100		> 100		76.9		75.1	> 100	
COC(=O)c1c2c(c(C)[n+]([O-])c1C)C(=O)C(NCc1ccc(F)c(F)c1)=CC2=O	1.96	7.97	3.17	12.7			2.15	7.58	2.1	6.17	1.13	2.96	2.45	7.47	2.39	10.5	1.53	3.35	4.64	1.88
COc1ccc2c(c1)[n+]([O-])c(-c1nc3ccccc3s1)c(N)[n+]2[O-]		> 100		> 100		> 100		> 100		> 100		> 100		> 100		> 100			> 100	
Cc1ccc(S(=O)(=O)N/N=C(\C(=O)Nc2cccc([N+](=O)[O-])c2)c2nc3ccc([N+](=O)[O-])cc3[nH]c2=O)cc1		> 100		> 100		> 100				> 100		> 100		> 100		> 100		> 100	> 100	
Cn1c2cccc3nnc4cccc(c4c32)n1C		> 100		> 100		> 100				> 100		> 100				> 100		> 100	> 100	
Cc1c(CCl)c(=O)oc2c(C)c3occ(CCl)c(=O)c3cc12		> 100		> 100		54.7		44.8		> 100		> 100		> 100				30.3	> 100	
CCN(CC)CCOc1cc2c(C(=O)OC)c(C)oc2cc1C(C)=O	13.4	30.3	13.1	25.9	15.8	32.2			18.5	38.4	13	31.7			14.2	31.2	9.4	21.5	29.1	14.8
Clc1ccc2nc(CCSCCc3nc4ccc(Cl)cc4[nH]3)[nH]c2c1		28		26.3				34.5		24.9		26.3		34.1		20.2		19.2	20.2	
COc1cnc2c(c1)C(=O)c1c-2n(CCCN2CCN(C)CC2)c(=O)c2cc(Cl)ccc12	3.09	> 100	2.47	31.8	13.8	78.9	0.932	17.6	4.17	> 100	4.04	22.3	0.95	36	2.97	18.4			20.5	0.674
O=C(O)/C(Cl)=C(\Cl)C(=O)Nc1ccccc1				> 100		> 100		> 100		> 100		> 100		> 100		> 100		> 100	> 100	
O=C(NCC#CCO)C(F)(F)F		> 100		> 100		> 100				> 100		> 100		> 100		> 100		> 100		
Cc1c(Cl)ccc2c1NC(=O)C2(O)C1Cc2ccccc2C1=O (stereo not given)		> 100		> 100		> 100				> 100		> 100		> 100		> 100		> 100	> 100	
Cc1ccc2sc3c(NCCCNCCO)nc4ccccc4c3c(=O)c2c1	1.74	3.61	1.7	3.23			1.2	2.5	1.78	3.63	1.87	3.76	1.27	2.87	1.43	2.82	1.69	3.14	3.24	1.77
CC1C(=O)N(C)C2(CO)C(=O)O[C@H](C)C12O (stereo not given in full)		> 100		> 100		> 100				> 100				> 100		> 100		> 100	> 100	

Source: PubChem BioAssay (NCI)
